Experimental data reported in patent US5686494A, “Pharmaceutical preparations for ameliorating epigastric functional disorders” (Daiichi Pharmaceutical Co., Ltd., priority 1993, dated 1997).
“And” between values parts separate entries of the source, which are not always exact repeats. Identical values can stand only once. Ends that are not written are not given here. * marks the point of attachment. SO3H = O=S(=O)(O)*

What was measured:
[1] = tested on: cholecystokinin (CCK)-induced delayed gastric emptying model; assay: Effect on gastric emptying in cholecystokinin (CCK)-induced delayed gastric emptying model (Phenol red method); assay type: in vivo, male Slc:ddY mice; details: for Gastric emptying rate (%): 90 min before phenol red, CCK 5 μg/kg i.p. 5 min before, measured 30 min after phenol red
Experimental: Effect on gastric emptying in cholecystokinin (CCK)-induced delayed gastric emptying model (Phenol red method)
After overnight fasting, male Slc:ddY mice of 6 to 7 weeks of age (body weight, 20 to 30 g; SLC, Shizuoka, Japan) were divided into six groups: a group in which cholecystokinin was administered with no drug treatment (No. 1 in Table 1), groups in which cholecystokinin was administered after administration of compound A (Nos. 2 to 4), a group in which cholecystokinin was administered after administration of cisapride as a positive control (No. 5) and a group in which cholecystokinin and drug treatments were not made (No. 6). Five to 15 mice were used in each group.
First, 90 minutes before the administration of phenol red, 1 mg/kg, 3 mg/kg or 10 mg/kg of compound A suspended in 0.5% carboxymethylcellulose was orally administered to mice of the compound A administration groups, respectively, (Nos. 2 to 4), 3 mg/kg of cisapride suspended in 0.5% carboxymethylcellulose was orally administered to mice as the positive control drug administration group (No. 5) and 0.5% carboxymethylcellulose was orally administered to mice of the […] (No. 1) and the no drug and no cholecystokinin treatment group (No. 6). Next, 5 minutes before the phenol red administration, 5 μg/kg of cholecystokinin (CCK8s, manufactured by Sigma) which had been dissolved in distilled water and then diluted with physiological saline was intraperitoneally administered to mice of each group. Thereafter, phenol red dissolved in 1% methylcellulose was orally administered with a dose of 0.2 mg/0.3 ml/mouse. After 30 minutes of the phenol red administration, each mouse was sacrificed by cervical dislocation to excise the stomach, and the amount of phenol red remaining in the excised stomach was measured to calculate the gastric emptying rate (%) by the following formula.
Gastric emptying rate (%)=[1-(phenol red recovered from drug-applied
(X is the average value of the recovered phenol red remaining in the stomach excised from each mouse sacrificed just after the phenol red administration)

[2] = tested on: dopamine-induced delayed gastric emptying model; assay: Effect on gastric emptying in dopamine-induced delayed gastric emptying model (phenol red method); assay type: in vivo, male Slc:ddY mice; details: for Gastric emptying rate (%): 90 min before phenol red, dopamine 30 mg/kg i.p. 5 min before, measured 30 min after phenol red
Experimental: Effect on gastric emptying in dopamine-induced delayed gastric emptying model (phenol red method) After overnight fasting, male Slc:ddY mice of 6 to 7 weeks of age (body weight, 28 to 32 g; SLC, Shizuoka, Japan) were divided into 7 groups, namely a group in which dopamine was administered with no drug treatment (No. 1 in Table 2), groups in which dopamine was administered after administration of the compound A (Nos. 2 to 5), a group in which dopamine was administered after administration of cisapride as a positive control (No. 6) and a group in which dopamine and drug treatments were not made (No. 7). Seven mice were used in each group. First, 90 minutes before the administration of phenol red, 0.01 mg/kg, 0.03 mg/kg, 0.1 mg/kg or 0.3 mg/kg of the compound A suspended in 0.5% carboxymethylcellulose was orally administered to mice of the compound A administration groups (Nos. 2 to 5), 3 mg/kg of cisapride suspended in 0.5% carboxymethylcellulose was orally administered to mice as the positive control drug administration group (No. 6) and 0.5% carboxymethylcellulose was orally administered to mice as the dopamine administration group with no drug treatment (No. 1) and the no drug and no dopamine treatment group (No. 7). Next, 5 minutes before the phenol red administration, 30 mg/kg of dopamine which has been dissolved in distilled water and then diluted with physiological saline was intraperitoneally administered to mice of each group. Thereafter, phenol red dissolved in 1% methylcellulose was orally administered with a dose of 0.2 mg/0.3 ml/mouse. […] mouse/X)]×100 (X is an average value of the recovered phenol red remained in the stomach excised from each mouse sacrificed just after the phenol red administration)

[3] = tested on: patients diagnosed as chronic gastritis and the like without morphological changes in the stomach; assay: Effects on subjective symptoms in patients; assay type: in vivo, human
Excerpt: (§1) Effects on subjective symptoms and gastric emptying in patients
(§2) A total of 8 patients diagnosed as chronic gastritis and the like without morphological changes in the stomach were examined in this test, each patient complaining of medium or more intense chronic epigastric fullness, having other NUD (or epigastric dysfunction complaints) such as gastric oppression, nausea, vomiting, anorexia, heartburn and the like and also showing delayed gastric emptying.
(§3) Each patient was allowed to take 2 tablets of the test pharmaceutical preparation of Example 1 three times a day 15 to 30 minutes before morning, noon and evening meals (600 mg of compound A/day), and the administration was continued for 2 weeks. Subjective symptoms (Table 3) were checked before and 2 weeks after the administration and gastric emptying (Table 4) was checked before and 2 weeks after the administration.
Subjective symptoms were examined by checking existence of the symptoms before and 2 weeks after the administration.

[4] = tested on: patients diagnosed as chronic gastritis and the like without morphological changes in the stomach; assay: Effect on gastric emptying in patients (acetaminophen method); assay type: in vivo, human
Excerpt: as §1, §2, §3
Gastric emptying was examined in accordance with the acetaminophen method of Heading et al (cf. Br. J. Pharmacol. 47 415-421 (1973)). That is, each patient after overnight fasting with no drug administration was allowed to take a test food (200 ml of a liquid natural food OKUNOS-A, thoroughly mixed with 1.5 g of acetaminophen) at 9 a.m. and then to take a seat without eating and drinking until completion of the examination. Heparinized blood samples were collected before and 45 minutes after the administration. Thereafter, serum was separated from each sample to measure serum acetaminophen concentration by a high performance liquid chromatography (HPLC).

[5] = 2 tablets of Example 1 three times a day (600 mg of compound A/day), 2 weeks

COc1cc(N)c(Cl)cc1C(=O)NC1CCN(CCCOc2ccc(F)cc2)CC1OC (stereo not drawn) [Cisapride, cisapride, reference compound]
Gastric emptying rate (%) ([1]; positive control, 3 mg/kg oral): 36.7 ± 6.8% | Gastric emptying rate (%) ([2]; 3 mg/kg oral): 23.4 ± 6.6%

CNC(=O)c1cccc(NCC(=O)NCCc2ccc(OC)c(OC)c2)c1 [Compound A, 3-[[[2-(3,4-dimethoxyphenyl)ethyl]carbamoyl]methyl]amino-N-methylbenzamide]
Symptom-disappeared cases/tested cases: Abdominal distension [3, 5]: 7/7 | Symptom-disappeared cases/tested cases: Anorexia [3, 5]: 3/3 | Symptom-disappeared cases/tested cases: Epigastralgia [3, 5]: 4/4 | Symptom-disappeared cases/tested cases: Gastric disphoria [3, 5]: 4/4 | Symptom-disappeared cases/tested cases: Heartburn [3, 5]: 2/2 | Symptom-disappeared cases/tested cases: Nausea [3, 5]: 4/4 | Symptom-disappeared cases/tested cases: Vomiting [3, 5]: 3/3 | disappearance of subjective symptoms ([3]; patients No. 1 to No. 8, after 2 weeks, 600 mg/day oral): complete disappearance of subjective symptoms | Gastric emptying rate (%) ([1]; 1 mg/kg oral): 24.8 ± 2.1% | gastric emptying rate improved ([1]; 1 mg/kg, 3 mg/kg or 10 mg/kg oral, vs CCK-treated mice with reduced gastric emptying rate): improved in a dose dependent fashion | Gastric emptying rate (%) ([1]; 3 mg/kg oral): 27.6 ± 4.2% | Gastric emptying rate (%) ([1]; 10 mg/kg oral): 40.5 ± 6.9% | Serum acetaminophen concentration, After administration ([4]; 2 weeks after start, 600 mg of compound A/day oral, individual patients No. 1 to 8 in order, 45 minutes after 1.5 g acetaminophen in test food): 7.6 µg/mL and 10.1 µg/mL and 12.8 µg/mL and 7.8 µg/mL and 7.3 µg/mL and 8.1 µg/mL and 8.5 µg/mL and 7.1 µg/mL | amelioration of gastric emptying (cases) ([4]; 2 weeks, 600 mg of compound A/day oral): 7 of the 8 | Serum acetaminophen concentration, Before administration ([4]; baseline before drug administration, individual patients No. 1 to 8 in order, 45 minutes after 1.5 g acetaminophen in test food): 7.6 µg/mL and 8.4 µg/mL and 8.0 µg/mL and 6.1 µg/mL and 6.9 µg/mL and 6.6 µg/mL and 5.2 µg/mL and 4.6 µg/mL | Gastric emptying rate (%) ([2]; 0.01 mg/kg oral): 6.9 ± 4.7% | gastric emptying rate improved ([2]; 0.01 mg/kg, 0.03 mg/kg, 0.1 mg/kg or 0.3 mg/kg oral, vs dopamine-treated mice with reduced gastric emptying rate): improved | Gastric emptying rate (%) ([2]; 0.03 mg/kg oral): 21.2 ± 6.1% | Gastric emptying rate (%) ([2]; 0.1 mg/kg oral): 18.1 ± 8.3% | Gastric emptying rate (%) ([2]; 0.3 mg/kg oral): 36.2 ± 10.2%

NCCc1ccc(O)c(O)c1 [dopamine, reference compound]
gastric emptying rate reduced to (fraction) ([2]; 30 mg/kg dopamine intraperitoneal, no drug): 1/20

cholecystokinin (DY(SO3H)MGWMDF; not fully specified (C-terminus); ends and bridges not checked; UniProt P06307 96-103, looked up) [cholecystokinin (CCK8s, manufactured by Sigma), reference compound]
gastric emptying rate reduced to (fraction) ([1]; 5 μg/kg cholecystokinin intraperitoneal, no drug): 1/3
